The results in this text go back to PubChem BioAssay (NCI).

The structures appear in SMILES notation.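 Assay format: 96-well plates, 48-hour exposure. Here, GI50 denotes the concentration required for 50% inhibition of growth. TGI is the concentration that stops growth completely.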

What all share (assay): growth of human tumour cells (NCI), 48 h
The test system of assay [1] is LOX IMVI melanoma.
In assay [2] the test system is UACC-62 melanoma.
For assay [3], the system named is HT29 colon.
Assay [4] concerns SNB-19 CNS.
Assay [5] relates to U251 CNS.
For assay [6], the system named is SR leukemia.
The test system of assay [7] is NCI-H226 lung.
The subject of assay [8] is HCC-2998 colon.
The subject of assay [9] is SK-MEL-2 melanoma.
In assay [10] the test system is SNB-75 CNS.

For `CC[O-].CC[O-].[O-]c1ccccc1C=Nc1ccccc1.[O-]c1ccccc1C=Nc1ccccc1.[Ti+4]`, the GI50 in assay [1] was 1.92 µM; in assay [2], above 100 µM; in assay [3], above 100 µM; in [4], above 100 µM; in [5], above 100 µM; in [6], 26.9 µM. The GI50 in [7] is above 100 µM; in assay [8] it was 82.9 µM. Further, the TGI in assay [1], in [2], in assay [3], in assay [4], in assay [5] and in assay [6] was above 100 µM each time. Moreover, the TGI in [7] and in [8] was above 100 µM throughout.
Regarding `COc1cc2[nH]c(C(=O)c3cc(OC)c(OC)c(OC)c3)c(N)c2cc1C#CCO`, the GI50 in assay [1] was 0.502 µM; in assay [9], 0.485 µM; in [2], 7.56 µM; in [3], 0.353 µM; in assay [4], 0.41 µM; in assay [5] it was 0.431 µM. Moreover, the results for the GI50 in assay [6], in assay [7] and in assay [8] were 0.284 µM, 0.752 µM and 0.775 µM, respectively. Besides, the TGI in assay [1] is 21.5 µM; in assay [9], above 100 µM; in assay [2], above 100 µM; in assay [3], above 100 µM; in [4], above 100 µM; in assay [5] it was above 100 µM. The TGI was 19.8 µM in [6], above 100 µM in [7] and above 100 µM in assay [8].
With `Cc1cc(N(CCC#N)CCC#N)ccc1/C=C1/CN(N2C(=O)/C(=C/c3ccc(N(CCC#N)CCC#N)cc3C)N=C2c2ccccc2)C(c2ccccc2)=N1`, the TGI in assay [1] is above 100 µM; in [2], above 100 µM; in [10] it was 51.1 µM; in assay [3] it was above 100 µM; in assay [4], above 100 µM; in [5], above 100 µM. For the same compound, the TGI in assay [6], in assay [7] and in [8] was above 100 µM each time.
In the case of `COc1cc(C(=O)C/C(CCC(=O)Nc2ccccc2[N+](=O)[O-])=N\NC(=O)C(N)=O)ccc1O`, the TGI in assay [1], in assay [9], in [2], in assay [3], in assay [4] and in assay [5] was above 100 µM throughout. The TGI in assay [6] and in assay [7] was above 100 µM in each case.
As to `CC(=O)O[C@H](C[C@H](C(C)C)N(C)C(=O)[C@@H](NC(=O)[C@H]1CCCCN1C)C(C)C)c1nc(C(=O)N[C@@H](Cc2ccccc2)C[C@H](C)C(=O)O)c(C)s1`, the GI50 in [1], in [9], in [2], in assay [10], in assay [3] and in assay [4] was below 0.0025 µM throughout. In addition, the GI50 in assay [5], in assay [6] and in [8] was below 0.0025 µM each time. Further, the TGI in assay [1], in assay [9], in assay [2], in assay [10], in assay [3] and in assay [4] was above 25 µM in each case. For the same compound, the TGI in assay [5], in [6] and in [8] was above 25 µM throughout.
Turning to `[N-]=[N+]=NC1(N=[N+]=[N-])C(=O)NN=C(c2ccccc2)C1=O` (stereo not drawn), the TGI was 92.9 µM in [1]; above 100 µM in assay [2]; above 100 µM in [10]; above 100 µM in [3]; above 100 µM in [5]; 75.5 µM in [6]. Also, the TGI in assay [7] and in assay [8] was above 100 µM in each case.
For the compound `OCCN1CCN(CCO)Cc2ccccc2OCCOc2ccccc2C1`, the TGI in assay [1], in assay [9], in [10], in assay [3], in assay [4] and in assay [5] was above 100 µM in each case. The TGI in [6] and in assay [7] was above 100 µM throughout.
With `O=c1[nH]cnc2c(C3OC(CO)C(O)C3O)[nH]nc12` (stereo not drawn), the TGI in assay [1], in [2], in [10], in [3], in assay [4] and in [5] was above 100 µM throughout. For the same compound, the TGI in assay [6], in assay [7] and in [8] was above 100 µM throughout.
For `CSc1nc(NC2OCC(OC(C)=O)C(OC(C)=O)C2OC(C)=O)c(N=CC=Nc2c(NC3OCC(OC(C)=O)C(OC(C)=O)C3OC(C)=O)nc(SC)n(C)c2=O)c(=O)n1C` (stereo not drawn), the TGI in [1], in assay [9], in assay [2], in assay [10], in assay [3] and in assay [4] was above 100 µM each time. Besides, the TGI in [5], in assay [6] and in [8] was above 100 µM in each case.
